Source: patent publication US11512054B2, “Pesticidal compounds” (BASF SE, priority 2017, dated 2022)

Columns and labels:
Type in all cases: in vivo
[1] = system: Diamond Back Moth (Plutella xylostella); experiment: Action on diamond back moth, cabbage leaf dip; conditions: foliar, 3rd instar larvae, 72 hours after treatment, read-out: mortality in comparison with untreated controls
Description: The active compound is dissolved at the desired concentration in a mixture of 1:1 (v/v) distilled water:acetone. Surfactant (Kinetic® HV) is added at a rate of 0.01% (v/v). The test solution is prepared at the day of use.
Leaves of cabbage were dipped in test solution and air-dried. Treated leaves were placed in petri dishes lined with moist filter paper and inoculated with ten 3rd instar larvae. Mortality was recorded 72 hours after treatment. Feeding damages were also recorded using a scale of 0-100%.

[2] = system: Southern Armyworm (Spodoptera eridania), 2nd Instar Larvae; experiment: Action on southern armyworm, sprayed lima bean plants; conditions: 96 h, 2nd instar larvae on lima bean, 4 days after treatment, read-out: mortality in comparison with untreated controls
Description: The active compounds were formulated by a Tecan liquid handler in 100% cyclohexanone as a 10,000 ppm solution supplied in tubes. The 10,000 ppm solution was serially diluted in 100% cyclohexanone to make interim solutions. These served as stock solutions for which final dilutions were made by the Tecan in 50% acetone:50% water (v/v) into 10 or 20 ml glass vials. A nonionic surfactant (Kinetic®) was included in the solution at a volume of 0.01% (v/v). The vials were then inserted into an automated electrostatic sprayer equipped with an atomizing nozzle for application to plants/insects.
Lima bean plants (variety Sieva) were grown 2 plants to a pot and selected for treatment at the 1st true leaf stage. Test solutions were sprayed onto the foliage by an automated electrostatic plant sprayer equipped with an atomizing spray nozzle. The plants were dried in the sprayer fume hood and then removed from the sprayer. Each pot was placed into perforated plastic bags with a zip closure. About 10 to 11 armyworm larvae were placed into the bag and the bags zipped closed. Test plants were maintained in a growth room at about 25° C. and about 20-40% relative humidity for 4 days, avoiding direct exposure to fluorescent light (24 hour photoperiod) to prevent trapping of heat inside the bags. Mortality and reduced feeding were assessed 4 days after treatment, compared to untreated control plants.

[3] = system: Silverleaf Whitefly (Bemisia argentifoli) (Adults); experiment: Action on silverleaf whitefly adults, sprayed cotton plants; conditions: Bemisia argentifolii, 72 h, 3 days after treatment, read-out: mortality in comparison with untreated controls
Description: The active compounds were formulated by a Tecan liquid handler in 100% cyclohexanone as a 10,000 ppm solution supplied in tubes. The 10,000 ppm solution was serially diluted in 100% cyclohexanone to make interim solutions. These served as stock solutions for which final dilutions were made by the Tecan in 50% acetone:50% water (v/v) into 5 or 10 ml glass vials. A nonionic surfactant (Kinetic®) was included in the solution at a volume of 0.01% (v/v). The vials were then inserted into an automated electrostatic sprayer equipped with an atomizing nozzle for application to plants/insects.
Cotton plants at the cotyledon stage (one plant per pot) were sprayed by an automated electrostatic plant sprayer equipped with an atomizing spray nozzle. The plants were dried in the sprayer fume hood and then removed from the sprayer. Each pot was placed into a plastic cup and about 10 to 12 whitefly adults (approximately 3-5 days old) were introduced. The insects were collected using an aspirator and a nontoxic Tygon® tubing connected to a barrier pipette tip. The tip, containing the collected insects, was then gently inserted into the soil containing the treated plant, allowing insects to crawl out of the tip to reach the foliage for feeding. Cups were covered with a reusable screened lid. Test plants were maintained in a growth room at about 25° C. and about 20-40% relative humidity for 3 days, avoiding direct exposure to fluorescent light (24 hour photoperiod) to prevent trapping of heat inside the cup. Mortality was assessed 3 days after treatment, compared to untreated control plants.

[4] = system: yellow fever mosquito (Aedes aegypti); experiment: whole plant or invertebrate; conditions: 48 h, larval mortality visually assessed after 2 days, read-out: mortality in comparison with untreated controls
Description: For evaluating control of yellow fever mosquito (Aedes aegypti) the test unit consisted of 96-well-microtiter plates containing 200 μl of tap water per well and 5-15 freshly hatched A. aegypti larvae.
The active compounds or mixtures were formulated using a solution containing 75% (v/v) water and 25% (v/v) DMSO. Different concentrations of formulated compounds or mixtures were sprayed onto the insect diet at 2.5 μl, using a custom built micro atomizer, at two replications. For experimental mixtures in these tests identical volumes of both mixing partners at the desired concentrations respectively, were mixed together.
After application, microtiter plates were incubated at 28±1° C., 80±5% RH for 2 days. Larval mortality was then visually assessed.

[5] = system: boll weevil (Anthonomus grandis); experiment: Action on boll weevil, eggs on insect diet in 96-well microtiter plates; conditions: 120 h, egg and larval mortality after 5 days, read-out: mortality in comparison with untreated controls
Description: For evaluating control of boll weevil (Anthonomus grandis) the test unit consisted of 96-well-microtiter plates containing an insect diet and 5-10 A. grandis eggs.
The compounds were formulated using a solution containing 75% (v/v) water and 25% (v/v) DMSO. Different concentrations of formulated compounds were sprayed onto the insect diet at 5 μl, using a custom built micro atomizer, at two replications.
After application, microtiter plates were incubated at about 25+1° C. and about 75+5% relative humidity for 5 days. Egg and larval mortality was then visually assessed.

[6] = system: tobacco budworm (Heliothis virescens); experiment: Action on tobacco budworm, eggs on insect diet in 96-well microtiter plates; conditions: 120 h, egg and larval mortality after 5 days, read-out: mortality in comparison with untreated controls
Description: For evaluating control of tobacco budworm (Heliothis virescens) the test unit consisted of 96-well-microtiter plates containing an insect diet and 15-25 H. virescens eggs.
The compounds were formulated using a solution containing 75% v/v water and 25% v/v DMSO. Different concentrations of formulated compounds were sprayed onto the insect diet at 10 μl, using a custom built micro atomizer, at two replications.
After application, microtiter plates were incubated at about 28+1° C. and about 80+5% relative humidity for 5 days. Egg and larval mortality was then visually assessed.

[7] = system: Orchid Thrips (Dichromothrips corbetti); experiment: Action on orchid thrips, floral-immersion technique; conditions: adult thrips, 72 hours after treatment, read-out: mortality in comparison with untreated controls
Description: Dichromothrips corbetti adults used for bioassay were obtained from a colony maintained continuously under laboratory conditions. For testing purposes, the test compound is diluted in a 1:1 mixture of acetone:water (vol:vol), plus Kinetic® HV at a rate of 0.01% v/v.
Thrips potency of each compound was evaluated by using a floral-immersion technique. All petals of individual, intact orchid flowers were dipped into treatment solution and allowed to dry in Petri dishes. Treated petals were placed into individual re-sealable plastic along with about 20 adult thrips. All test arenas were held under continuous light and a temperature of about 28° C. for duration of the assay. After 3 days, the numbers of live thrips were counted on each petal. The percent mortality was recorded 72 hours after treatment.

| SMILES | mortality at 500 ppm [1] | mortality at 300 ppm [2] | mortality at 300 ppm [3] | mortality at 800 ppm [4] | mortality at 800 ppm [5] | mortality at 800 ppm [6] | mortality at 500 ppm [7] |
| --- | --- | --- | --- | --- | --- | --- | --- |
| CSC(=N/N=C/c1ccc2c(C(=N)Nc3ccc(OC(F)(F)F)cc3)nn(C)c2c1)Nc1ccccc1C(C)C [Example C-35, 1-(2-isopropylphenyl)-2-methyl-3-[(E)-[1-methyl-3-[N-[4-(trifluoromethoxy)phenyl]carbamimidoyl]indazol-6-yl]methyleneamino]isothiourea] | ≥ 75% | ≥ 75% | ≥ 75% | ≥ 50% | ≥ 75% | ≥ 75% | ≥ 75% |
| CC(C)c1ccccc1N1C(=O)CS/C1=N\N=C\c1ccc2c(NC(=N)c3ccc(OC(F)(F)F)cc3)nn(C)c2c1 [Example C-39, N-[6-[(E)-[(Z)-[3-(2-isopropylphenyl)-4-oxo-thiazolidin-2-ylidene]hydrazono]methyl]-1-methyl-indazol-3-yl]-4-(trifluoromethoxy)benzamidine] | ≥ 75% | ≥ 75% | ≥ 75% | ≥ 50% | ≥ 75% | ≥ 75% | ≥ 75% |
| CC(C)c1ccccc1NC(=S)N/N=C/c1ccc2c(C(=N)Nc3ccc(OC(F)(F)F)cc3)nn(C)c2c1 [Example C-1, 1-(2-isopropylphenyl)-3-[(E)-[1-methyl-3-[N-[4(trifluoromethoxy)phenyl]carbamimidoyl]indazol-6-yl]methyleneamino]thiourea] | ≥ 75% | ≥ 75% | ≥ 75% | ≥ 50% | ≥ 75% | ≥ 75% | ≥ 75% |
| CC(C)c1ccccc1/N=C1\SCC(=O)N1/N=C/c1ccc2c(C(N)=Nc3ccc(OC(F)(F)F)cc3)nsc2c1 [Example C-28, 6-[(E)-[(2Z)-2-(2-isopropylphenyl)imino-4-oxo-thiazolidin-3-yl]iminomethyl]-N′-[4-(trifluoromethoxy)phenyl]-1,2-benzothiazole-3-carboxamidine] | ≥ 75% | ≥ 75% | ≥ 75% | ≥ 50% | ≥ 75% | ≥ 75% | ≥ 75% |
| CC(C)c1ccccc1N1C(=O)CS/C1=N/N=C/c1ccc2c(C(=N)Nc3ccc(OC(F)(F)F)cc3)nn(C)c2c1 [Example C-2, 6-[(E)-[(E)-[3-(2-isopropylphenyl)-4-oxo-thiazolidin-2-ylidene]hydrazono]methyl]-1-methyl-N-[4-(trifluoromethoxy)phenyl]indazole-3-carboxamidine] | ≥ 75% | ≥ 75% | ≥ 75% | ≥ 50% | ≥ 75% | ≥ 75% | ≥ 75% |
| CC(C)c1ccccc1NC(=S)N/N=C/c1ccc2c(NC(=N)c3ccc(OC(F)(F)F)cc3)nn(C)c2c1 [Example C-38, 1-(2-isopropylphenyl)-3-[(E)-[1-methyl-3-[[4-(trifluoromethoxy)benzenecarboximidoyl]amino]indazol-6-yl]methyleneamino]thiourea] | ≥ 75% | ≥ 75% | ≥ 75% | ≥ 50% | ≥ 75% | ≥ 75% | ≥ 75% |
